Tested on: soybeans (Glycine max)
Assay: Example 1: soybean seed treatment with fluensulfone plus a single amino acid (pesticide phytotoxicity reduction)
Format: in vivo
Details: conclusion of Example 1; soybean seeds, 0.1% (w/v) amino acid
Experimental: To 10 g of seeds of soybeans (scientific name: Glycine max), fluensulfone (Nimitz, ADAMA, 40% (w/v) Fluensulfone-containing product) or fluensulfone with 1 ml of 0.1% (w/v) amino acid solution were treated as a pesticide. […] The treatment groups were as Table 1 below.
After mixing the solutions of each group well, they were sufficiently mixed for about 1 minute so that the solutions were evenly applied to soybean seeds. After than, they were taken out in a sample dish and air-drying was performed until the solutions were dried.
Soybean seeds were sown, and the germination rate was measured by counting the number of germinated seeds among all the seeds in 7 days after sowing, and this was shown in FIG. 1.
In 20 days after sowing, the length of the shoots (from the ground to the growth point) was measured with a ruler and this was shown in FIG. 2, and the photographs of the shoots and roots were shown in FIG. 3 and FIG. 4.

| SMILES | phytotoxicity by fluensulfone |
| --- | --- |
| CC(C)C[C@H](N)C(=O)O [leucine] | reduced |
| N[C@@H](CCC(=O)O)C(=O)O.[Na] [sodium glutamic acid] | reduced |
| N[C@@H](Cc1c[nH]cn1)C(=O)O [histidine] | reduced |

Reference: patent publication US20250185651A1, “COMPOSITION FOR PESTICIDE PHYTOTOXICITY REDUCTION COMPRISING AMINO ACID” (CJ CheilJedang Corporation, priority 2021, published 2025)
